From US12570704B2, “Functionally modified maytansinoids and compositions and methods of use thereof” (University of Georgia Research Foundation, Inc., priority 2019, dated 2026)

Experiments:
[1] = tested on: H1299 tumor bearing nude mice; assay: In vivo therapy study with X-ray irradiation; conditions: 260.8 nmol/kg i.v. + 6 Gy after 4 h; RT only 1826.4
Experimental: All animal experiments were performed according to protocols approved by the Institutional Animal Care and Use Committee (IACUC). Female athymic nude mice (Charles River Laboratories, USA) at 6 weeks old were housed in a protected unit specified for immunodeficient animals. To establish tumor models, H1299 cells (2×10^5 cells) were suspend in a matrigel solution and were subcutaneously injected into mice using a 28-gauge needle. All mice were randomized into six groups (n=5). When the average tumor volume reached 150 mm3, 200 μL free drug (DM1, DM1-NO) or drug loaded NPs (DM1-NPs, DM1-NO-NPs) in PBS at a dose of 260.8 nmol/kg were injected intravenously into the mice. Mice treated with 200 μL PBS were studied as a control. All the other mice received X-ray irradiation (6 Gy, 320 kV) to tumors 4 h after drug/nanoparticle injection, with the rest of the body shielded by lead. Tumor size and body weight were inspected every 3 days using a digital caliper, and the tumor volume was estimated as (length)×(width)2/2. After 24 days, the mice were euthanized, and the tumor was excised and dissected into slices for hematoxylin and eosin (H&E) staining.
In vivo therapy studies were performed with H1299 tumor bearing nude mice. When tumor size reached 150 mm3, DM1-NO-NPs (260.8 nmol/kg, equivalent to 0.2 mg DM1/kg) was intravenously (i.v.) injected into the animals (n=5). […]

[2] = NO release in solution with and without 6 Gy X-ray irradiation (Greiss assay); type: physicochemical; conditions: for NO release: Greiss assay
Excerpt: (§1) FIGS. 1A and 1B are schemes illustrating how DM1-NO encapsulated PLGA-b-PEG nanoparticles (DM1-NO-NPs) can accumulate in tumors through the EPR effect. In the presence of radiation and/or reduced pH in endosomes/lysosomes, the S—N bond was broken, releasing DM1 and NO. DM1 inhibits microtubule assembly, arresting cells at the more radiosensitive G2/M phase. Meanwhile, NO can react with ROS to form radicals such as peroxynitrites, causing DNA and lipid damages. The combined effects enhance the efficacy of RT. […] Quantification was based on Greiss assay. PBS, cell culture medium (RPBI-1640), DM1, and DM1-NPs were tested as controls. FIG. 1D is a histogram showing the results of DLS analysis of DM1-NO-NPs in water. FIG. 1E is a plot showing the zeta potential of DM1-NO-NPs in water. FIG. 1F is a bar graph illustrating the stability of DM1-NO under ambient conditions. After synthesis, dry product of DM1-NO was kept at room temperature and the total amount of remaining NO was quantified using Griess assay on Day 0, 7, 14, and 21. FIG. 1G is plot illustrating the stability of DM1-NO in solutions. DM1-NO (20.09 μmol) was dissolved in PBS of different pH (5.5, 6.5, and 7.4). Time-dependent NO release was measured on a Sievers NOA 280i system, which assesses NO based on gas phase chemiluminescent reaction between NO and ozone. FIG. 1H is a line graph showing release profiles for DM1-NO-NPs, tested in PBS of different pH at 37° C. by Greiss assays. FIG. 1I is a histogram showing the results of DLS analysis of DM1-NPs. FIG. 1J is a plot showing the zeta potential of DM1-NPs. FIG. 1K is a series of representative images of clonogenic assays. H1299 cells were treated with 20 nM of DM1 and DM1-NO for 12 h, followed −X-ray irradiation (6 Gy). […]
NO concentration was assessed to determine the amount of DM1-NO prodrug loaded into the DM1-NO-NPs. […] Therefore, to quantify the overall NO amount, the total nitrite (NO2-) and nitrate (NO3-) concentrations in a NP solution cells) were measured using Nitrate/Nitrite Colorimetric assay (Cayman Chemical) by following the vendor's protocol. […]

[3] = Time-dependent NO release in PBS of different pH (Sievers NOA 280i chemiluminescence); type: physicochemical
Excerpt: FIGS. 1A and 1B are schemes illustrating how DM1-NO encapsulated PLGA-b-PEG nanoparticles (DM1-NO-NPs) can accumulate in tumors through the EPR effect. In the presence of radiation and/or reduced pH in endosomes/lysosomes, the S—N bond was broken, releasing DM1 and NO. DM1 inhibits microtubule assembly, arresting cells at the more radiosensitive G2/M phase. Meanwhile, NO can react with ROS to form radicals such as peroxynitrites, causing DNA and lipid damages. The combined effects enhance the efficacy of RT. […] Quantification was based on Greiss assay. PBS, cell culture medium (RPBI-1640), DM1, and DM1-NPs were tested as controls. FIG. 1D is a histogram showing the results of DLS analysis of DM1-NO-NPs in water. FIG. 1E is a plot showing the zeta potential of DM1-NO-NPs in water. FIG. 1F is a bar graph illustrating the stability of DM1-NO under ambient conditions. After synthesis, dry product of DM1-NO was kept at room temperature and the total amount of remaining NO was quantified using Griess assay on Day 0, 7, 14, and 21. FIG. 1G is plot illustrating the stability of DM1-NO in solutions. DM1-NO (20.09 μmol) was dissolved in PBS of different pH (5.5, 6.5, and 7.4). Time-dependent NO release was measured on a Sievers NOA 280i system, which assesses NO based on gas phase chemiluminescent reaction between NO and ozone. FIG. 1H is a line graph showing release profiles for DM1-NO-NPs, tested in PBS of different pH at 37° C. by Greiss assays. FIG. 1I is a histogram showing the results of DLS analysis of DM1-NPs. FIG. 1J is a plot showing the zeta potential of DM1-NPs. FIG. 1K is a series of representative images of clonogenic assays. H1299 cells were treated with 20 nM of DM1 and DM1-NO for 12 h, followed −X-ray irradiation (6 Gy). The resulting cells were plated for clonogenic assays. FIG. 1L is a plot showing UV-vis analysis of DM1-NO, PLGA-b-PEG and DM1-NO-NPs. FIG. 1M is a plot showing FT-IR analysis of DM1-NO, PLGA-b-PEG and DM1-NO-NPs. FIG. 1N is a plot showing the results of DLS analysis (hydrodynamic size) over time for DM1-NO-NPs that were incubated in PBS for 24 h.
DM1-NO was stable under ambient conditions in the powder form. According to Griess assay, less than 10% of the compound was degraded over 2 weeks' storage at room temperature (FIG. 1F). […] (FIG. 1G), and the degradation was accelerated at low pH (e.g. pH 6.5 or 5.5, FIG. 1G, Table 1), and under X-ray irradiation (FIG. 1C).

[4] = Stability of dry DM1-NO under ambient conditions (Griess assay); type: physicochemical; conditions: powder form, 2 weeks' storage at room temperature
Excerpt: as §1, with “ozone.” for “ozone. FIG. 1H is a line graph showing release profiles for DM1-NO-NPs, tested in PBS of different pH at 37° C. by Greiss assays. FIG. 1I is a histogram showing the results of DLS analysis of DM1-NPs. FIG. 1J is a plot showing the zeta potential of DM1-NPs. FIG. 1K is a series of representative images of clonogenic assays. H1299 cells were treated with 20 nM of DM1 and DM1-NO for 12 h, followed −X-ray irradiation (6 Gy).”

In the case of `COc1cc2cc(c1Cl)N(C)C(=O)C[C@@H](OC(=O)[C@H](C)N(C)C(=O)CCSN=O)[C@]1(C)OC1[C@H](C)[C@@H]1C[C@@](O)(NC(=O)O1)[C@H](OC)/C=C\C=C(/C)C2` (stereo partly drawn) [DM1-NO], the “average tumor size (volume) on Day 24” value [1] is reported as 759.33 mm3, the “increase of NO release” value ([2]; 6 Gy X-ray irradiation applied to solution) is reported as 5.14 fold and the NO release ([2]; before 6 Gy X-ray irradiation) is reported as 3.68 µM. For the same molecule, the NO release ([2]; in the presence of 6 Gy X-ray irradiation) was 18.88 µM, the degradation in solution ([3]; PBS at 37° C., accelerated at low pH and under X-ray) was “gradually broke down” and the “Average NO Release (per μL of sample)” value ([3]; PBS pH 5.5) was 1.29E−07 μmol NO/min. The “Average NO Release (per μL of sample)” value ([3]; PBS pH 6.5) was 7.81E−08 μmol NO/min, the “Average NO Release (per μL of sample)” value ([3]; PBS pH 7.4) was 7.83E−08 μmol NO/min and the compound degraded [4] was “less than 10%”.
